{"source": "patent US9888679B2", "about": "“Protection of progenitor cells and regulation of their differentiation” (Proteobioactives Pty Ltd, priority 2007, dated 2018)", "format_in_all_cases": "cell-based", "key": {"[1]": {"test_system": "Murine MSC line C3H10T1/2", "test": "Proteoglycan biosynthesis (35S-GAG) in 7 day pellet cultures", "conditions": "10 micrograms/mL; 7 day pellet culture; FIG. 15", "text": "FIG. 15. Bar graphs showing the concentration dependent effects of Pentosan Polysulfate (PPS), on the biosynthesis of Proteoglycans (PGs) as determined by the incorporation of radioactively labelled sulfate into the sulfated glycosaminoglycans (^35S-GAG) of PGs in 7 day pellet cultures of a murine progenitor cells (C3H10T1-2).\nMurine Progenitor cells (cell lines C3H10T1/2 or ATDC5) purchased from RIKEN Cell Bank (Tsukuba, Japan) or human immunoselected Stro-1+ Progenitor cells (Mesoblast Ltd, Melbourne, Australia) were seeded in 2 ml screw-capped sterile centrifuge tubes and the total volume made-up to 1 ml with DMEM-High glucose medium containing 10% FBS. Progenitor cells were then centrifuged at 500 g for 10 min in a swing-out rotor at room temperature. The screw caps were loosened and the tubes placed in an incubator at 37° C., in a 5% CO2/95% air moist atmosphere. The pellets generally formed within 24 hours. Medium was changed daily in the first two days, then once every 2-3 days thereafter. […] Biosynthesis of ^35S-GAGs was determined as described for the monolayer cultures and the results expressed as ^35-S-GAGs/μg DNA."}, "[2]": {"test_system": "murine ATDC5 progenitor cells", "test": "Viability after freeze-thawing cycle, MTT assay", "protocol": "FIG. 2. Bar graph showing the viability of different numbers of murine ATDC5 progenitor cells suspended in cryogenic media containing 7.5% DMSO and various concentrations of Pentosan Polysulfate (PPS) after being subjected to freeze-thawing cycle. Cell viability was determined using the mitochondrial dehydrogenase MTT assay.\nMurine Progenitor cells (cell lines C3H10T1/2 or ATDC5) purchased from RIKEN Cell Bank (Tsukuba, Japan) or human immunoselected Stro-1+ progenitor cells (Mesoblast Ltd, Melbourne, Australia) were seeded at a various cell densities over the range of 1.68×10^5-1.0×10^6 cells into 2 mL screw-capped centrifuge tubes containing in DMEM+10% FBS. In separate tubes a stock solution containing 2× the required concentrations of PPS dissolved in DMEM+20% FBS and 15% DMSO were prepared. These stock solutions were added to the cell cultures such that the final concentration of PPS was half that of the stock concentration and of FBS was 10% and DMSO was […]. […] All concentrations of PPS used were examined in triplicated. Cells and the cryopreservation solutions containing the PPS were mixed gently for 5 mins and stored in liquid nitrogen. After 3 days, the tubes were removed from liquid nitrogen and thawed in 37° C. water bath and allowed to stand at ambient temperature for about 15 min. The cells were centrifuged down at 200 g for 5 min and the supernatant discarded. The cells were washed with 900 ul of DMEM without phenol red, and then centrifuged down at 200 g for 5 min. The cells were resuspended in 500 ul of 1 mg/ml MTT solution in DMEM and incubated in 37° C. for 3 hours then centrifuged at 6000 g for 5 min. 300 ul of DMSO was added to each tube to dissolved the dye crystals. 90 ul×3 from each tube were transferred to a 96-well plate and the absorbance at 540 nm determined.\nCell viability was determined using the MTT assay."}, "[3]": {"test_system": "Primary human progenitor cells", "test": "Progenitor cell proliferation, WST-1 assay", "conditions": "FIG. 4", "protocol": "(§1) FIG. 4. The Effects of Pentosan Polysulfate (PPS) on Human Progenitor cell Proliferation. Primary human progenitor cells were cultured in 24 well plates in growth media supplemented with PPS at the indicated concentrations. At various time intervals (day 1, 3, 6), the growth media was removed and replaced with phenol red free media containing the tetrazolium salt WST-1 for 2 hours at 37° C./5% CO2. WST-1 is cleaved by mitochondrial dehydrogenase in viable cells to produce a formazan dye that can be detected using an ELISA plate reader at a wavelength of 450 nm. Absorbance at 450 nm for each time point is shown for all concentrations of PPS.\nFIG. 20. […] At various time intervals (day 3 & 5), the growth media was removed and replaced with phenol red free media containing the tetrazolium salt WST-1 for 2 hours at 37° C./5% CO2. Absorbance at 450 nm for each time point is shown for all concentrations of PPS and HA.\nas §1, with “Primary” for “FIG. 4. The Effects of Pentosan Polysulfate (PPS) on Human Progenitor cell Proliferation. Primary”"}}}
{"substance": "pentosan polysulfate [PPS]", "values": [{"measurement": "increase of proteoglycan synthesis, of the control values", "setting": "[1]", "value": "more than 80%"}, {"measurement": "cell viability after freeze-thawing (MTT)", "setting": "[2]; 100 μg/ml PPS, 0.25, 0.5 and 1.0 million cells", "value": "viability was enhanced"}, {"measurement": "cell viability after freeze-thawing (MTT)", "setting": "[2]; 500 μg/ml PPS, 0.25 million and 0.5 million cells", "value": "enhancement is seen"}, {"measurement": "cell viability after freeze-thawing (MTT)", "setting": "[2]; 500 μg/ml PPS, 1 million cells", "value": "did not appear to enhance viability but was not detrimental to viability"}, {"measurement": "cell viability after freeze-thawing (MTT)", "setting": "[2]; 7.5% DMSO, all PPS concentrations, FIG. 2", "value": "enhanced by the presence of PPS at all concentrations"}, {"measurement": "cell division (WST-1 cleavage assay)", "setting": "[3]; 1-5 micrograms/mL, monolayer", "value": "Marked stimulation of cell division"}, {"measurement": "proliferation (WST-1, absorbance at 450 nm)", "setting": "[3]; day 6, PPS in excess of 1 μg/ml, p<0.01, ANOVA", "value": "statistically significant increase in proliferation"}]}
